# Results reported in US20220395500A1, “SMALL MOLECULE ACTIVATORS OF INTERFERON REGULATORY FACTOR 3 AND METHODS OF USE THEREOF” (Neuralexo, Inc., priority 2020, published 2022).
# Like-named read-outs stand apart in the source and are kept apart here.
# What was measured:
# [1] = tested on: NF-κB-SEAP reporter in THP1-Dual cells; assay: THP1-Dual NF-κB-SEAP reporter counterscreen; format: cell-based, human; settings: Homo sapiens, THP1-Dual, Human Reporter Cell Line THP1; read-out: THP1 NFkB EC50
# Method: (§1) THP1 Dual (InvivoGen) cell suspensions were cultured in RPMI 1640 (Hyclone, Logan, Utah) supplemented with 10% fetal bovine serum (Hyclone), 100 U/mL Normocin (Invivogen), and 50 U/mL PenStrep (Gibco, Dublin, Ireland) between a density of 7·10^5-2·10^6 cells/mL. Every other passage, media was supplemented with 5 U/mL Blasticidin and 100 U/mL Zeocin to maintain the expression constructs. White, flat-bottom 384-well plates (Greiner, Kremsmunster, Austria, 781080) were seeded with 2.5·10^4 cells/well in a total of 50 μL media containing 5 ng/mL phorbolmyristic acid (PMA) using a Matrix WellMate (Thermo Scientific) dispenser. After 48 hours of incubation at 37° C., media was removed using a BioTek ELx405 CW plate washer set to aspirate and wash each well three times with 65 μL 1×PBS. Plates were reloaded with 50 μL media without PMA and treatments added. Lipopolysaccharide in dimethylsulfoxide (DMSO) was transferred to control wells using a HP D300 microdispenser to a final concentration of 313 ng/mL. Compounds from chemical library plates were copied using a Sciclone (Caliper LifeSciences) mounted with a 384-pin transfer tool to obtain a final concentration of 10 μM. After incubation with treatments for 24 hours, 10 μL of supernatant media from each well was transferred into a white, flat-bottom 384-well plate for luminescence readout and a black-walled, clear flat-bottom 384-well plate for absorbance readout.
# (§2) Specifically, to enable screening of novel chemical entities (NCEs) in a larger screening effort, a robust high-throughput cell-based assay system for primary hit identification of ISRE activators based on the above-mentioned target validation was desired. Human ISRE activity was verified using a THP-1 monocyte line containing the NF-κB-SEAP and IRF-Lucia luciferase dual reporter (THP1-Dual; Invivogen) that features two reporter genes, SEAP (secreted embryonic alkaline phosphatase) and Lucia luciferase, thereby enabling the simultaneous study of the NF-κB and IRF signalling pathways. The Lucia luciferase reporter is under the control of an ISG54 (interferon-stimulated gene) minimal promoter in conjunction with five IFN-stimulated response elements. The SEAP gene is driven by an IFN-β minimal promoter fused to five copies of the NF-κB consensus transcriptional response element and three copies of the c-Rel binding site. Both reporter proteins are readily measurable in the cell culture supernatant when using QUANTI-LUC™ and QUANTI-Blue SEAP detection reagents.
# Using the experimental design and data analysis outlined above, optimized assay conditions were obtained. The responsiveness of the human THP-1 Dual cell line was evaluated in an array of assay conditions to obtain sensitive and reproducible results for the activation of IRF and NF-κB reporters. An optimal plating density and differentiation protocol for these cells was established in a 384-well format. All transfer steps are fully automated using high throughput robotic equipment. Briefly, cells are seeded in differentiation medium using a Matrix WellMate fitted with the WellMate Stacker (Thermo Scientific) and incubated at 37° C. with 5% CO2 for 48 h. Following differentiation, cells are washed using a BioTek ELx405 Select CW plate washer and growth medium added with the Matrix WellMate. Programmed control treatments are added to wells using a D300 digital dispenser fitted with T8+ dispense heads (Hewlett Packard) designed to dispense nanoliter quantities of material. Compounds from library plates are added using a pin tool fitted to a Sciclone ALH 3000 Workstation (Caliper Life Sciences) programmed with Maestro v4.4. After treatment, plates are returned to incubators for 24 hours. To measure reporter expression, supernatant is collected using the Sciclone and dispensed into 2 plates: 1) a white 384-well assay plate for Lucia luminescence measurements and 2) a clear-bottom black 384-well assay plate for SEAP absorbance measurements. […]
# [2] = THP1-Dual cytotoxicity (Cell Titer Glo, ATP); format: cell-based, human; settings: human, THP1-Dual cells, read-out: Thp1 cytotox CC50
# Method in brief: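 CC50, the concentration killing half the cells, was derived from ATP-dependent CellTiter-Glo luminescence. Cells were THP1-Dual (human) and compound was tested as an 8-point dose-response series, with viability read in the same plate.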
# [3] = tested on: IRF-Lucia luciferase reporter (ISRE) in J774-Dual cells; assay: J774-Dual IRF-Lucia luciferase reporter assay (ISRE activation); format: cell-based, mouse; settings: for EC50: Mus musculus, read-out: J774 IRF EC50
# Method: First, optimal assay conditions and assay quality in 384-well format were determined. As mentioned, the mouse macrophage J774 cell line (J774-Dual, InvivoGen) stably transfected with the same inducible reporters described above (e.g., IRF-Lucia luciferase and NF-κB-SEAP) was used. The responsiveness of the J774-Dual cell line was investigated in an array of assay conditions to obtain sensitive and reproducible results for the activation of the IRF and NF-κB reporters. An optimal plating density and conditions for these cells was established for these cells in a 384-well format. Assay work-flow is similar to that discussed above for the THP1-Dual assay without a need for cell differentiation. Thus, cells are seeded directly in growth medium and incubated at 37° C. in a 5% C02 incubator for 24 hours prior to the programmed treatments being added as described herein.
# The primary high throughput screen used the HTS platform of human THP1 monocyte cells containing the IRF-Lucia luciferase and NFκB-SEAP (secreted embryonic alkaline phosphatase) dual reporter (THP1-Dual, Invivogen), enabling the simultaneous study of the IRF and NFκB signaling pathways respectively. As discussed, the Lucia luciferase reporter gene is under the control of an ISG54 (interferon-stimulated gene) minimal promoter in conjunction with five interferon-stimulated response elements (ISRE). The SEAP gene is driven by an IFNβ minimal promoter fused to five copies of the NFκB consensus transcriptional response element and three copies of the c-Rel binding site. Both IRF-Lucia luciferase and NFκB-SEAP reporter proteins are secreted and readily measurable in the cell culture supernatant when using QUANTI-Luc™ and QUANTI-Blue™ detection reagents, respectively. Identified “hits” were confirmed in a secondary screen with an 8-point dose response curve. Hits were further screened for activity in the mouse using the mouse J774 macrophage-like cell line containing the identical reporter constructs (J774-Dual, Invivogen).
# The OTRADI Small Molecule Library of approximately 246,000 diverse compounds (see below for description) was screened using the THP1-Dual based HTS platform described above. All transfer steps in the screen are fully automated, thus reducing variability. Primary screening included a single data point or dose for each molecule. After data normalization was applied for each assay run, “hit” selection was performed on the plates that pass the quality control (QC) criterion. Hits were defined as samples having values above the activity cutoff determined based on noise level of the assay to reduce false positive rates. In the pilot study discussed above this activity value was >3σ above the ISRE mean with the added criteria of NFκB activation being lower than […] from the mean to identify IRF selective compounds. The ratio of ISRE:NFκB activity was also calculated as a selectivity index for prioritizing hit selection. Primary hits underwent secondary screening to determine the 50% effective concentration (EC50) and 50% cytotoxic concentration (CC50) of these agents using an 8-point dose-response curve in the human THP1-Dual cells. Cytotoxicity was measured in the plate using Cell Titer Glo (Promega). Identified candidate compounds were further screened (orthogonal screen) for cross species activity in the validated mouse J774-Dual assay using an 8-point dose-response format to determine EC50 and CC50 values as well as ISRE:NFκB ratios. A general process flow for the experimental design laid out above is depicted at FIG. 12.
# [4] = tested on: IRF-Lucia luciferase reporter (ISRE) in THP1-Dual cells; assay: THP1-Dual IRF-Lucia luciferase reporter assay (ISRE activation); format: cell-based, human; settings: THP1-Dual; for EC50: Homo sapiens, read-out: THP1 IRF EC50
# Method: as §1, §2
# The responsiveness of the human THP-1 Dual cell line was evaluated in an array of assay conditions to obtain sensitive and reproducible results for the activation of IRF and NF-κB reporters. […] All transfer steps are fully automated using high throughput robotic equipment. Briefly, cells are seeded in differentiation medium using a Matrix WellMate fitted with the WellMate Stacker (Thermo Scientific) and incubated at 37° C. with 5% CO2 for 48 h. Following differentiation, cells are washed using a BioTek ELx405 Select CW plate washer and growth medium added with the Matrix WellMate. Programmed control treatments are added to wells using a D300 digital dispenser fitted with T8+ dispense heads (Hewlett Packard) designed to dispense nanoliter quantities of material. Compounds from library plates are added using a pin tool fitted to a Sciclone ALH 3000 Workstation (Caliper Life Sciences) programmed with Maestro v4.4. After treatment, plates are returned to incubators for 24 hours. To measure reporter expression, supernatant is collected using the Sciclone and dispensed into 2 plates: 1) a white 384-well assay plate for Lucia luminescence measurements and 2) a clear-bottom black 384-well assay plate for SEAP absorbance measurements.
# J774-Dual cytotoxicity = format: cell-based, mouse; settings: mouse, J774-Dual cells, read-out: J774 cytotox CC50
# Method in brief: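 CC50 derived from 8-point concentration series in mouse J774-Dual reporter cells, with viability read by CellTiter-Glo in the same plate. Run in parallel with EC50 and ISRE:NFκB ratio determination for cross-species confirmation.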
# [5] = Mouse Reporter Cell Line J774, at peak
# [6] = J774, Mouse Reporter Cell Line J774
# [7] = J774, Mouse Reporter Cell Line, 8-point dose response
# [8] = Human Reporter Cell Line, 8-point dose response
SMILES,"EC50 [3, 6]",EC50 ([4]; Human Reporter Cell Line THP1),EC50 [1],CC50 ([2]; Human Reporter Cell Line THP1),"J774 IRF % activation at peak [3, 5]",CC50 (J774-Dual cytotoxicity; Mouse Reporter Cell Line J774),other results
Cc1ccc(C(=O)Nc2cc(-c3nc4ccccc4s3)ccc2C)c(C)c1 [ND-104],–,–,12.2 µM,–,–,–,–
Oc1ccc(-c2nc3ccc(O)cc3o2)cc1 [ND-74],–,–,32.5 µM,> 25 µM,–,> 25 µM,–
Cc1ccc(-c2nc3ccccc3s2)cc1NC(=O)c1cc(I)ccc1Cl [ND-62],–,–,~9.34 µM,> 25 µM,–,> 25 µM,–
COc1ccc2oc(-c3ccc(C)c(NC(=O)c4ccc(OC)c([N+](=O)[O-])c4)c3)nc2c1 [ND-86],–,–,~3.85 µM,> 25 µM,–,> 25 µM,–
COc1ccc(C(=O)Nc2cc(-c3nc4cc(OCCCN5CCCC5)ccc4o3)ccc2C)cc1[N+](=O)[O-] [ND-92],–,–,~2.33 µM,> 25 µM,–,> 25 µM,–
Cc1ccc(C(=O)Nc2ccc(O)c(-c3nc4ccccc4s3)c2)cc1[N+](=O)[O-] [ND-63],–,–,~3.2 µM,27.4 µM,–,> 25 µM,–
Cc1cc2nc(-c3ccc(C)c(NC(=O)c4ccc(OCc5ccccc5)cc4)c3)oc2cc1C [ND-105],–,–,2.19 µM,> 10 µM,–,> 10 µM,–
COc1ccc(NC(=O)c2cc(NC(=O)c3cccs3)ccc2N2CCOCC2)cc1Cl [NB-22],65 µM,3.26 µM,–,> 25 µM,24.91%,> 25 µM,–
O=C(Nc1ccc(N2CCN(C(=O)c3cccs3)CC2)cc1)c1ccc2ccccc2c1 [NA-7],–,–,–,–,–,–,"CC50 ([2]; Human Reporter Cell Line): > 25 µM; J774 IRF % activation at peak ([3]; Mouse Reporter Cell Line): 5.638%; EC50 [3, 7]: 4.36 µM; EC50 [4, 8]: 3.91 µM; CC50 (J774-Dual cytotoxicity; Mouse Reporter Cell Line): > 25 µM"
Cc1cccc(C(=O)Nc2ccc(N3CCN(C(=O)c4cccs4)CC3)cc2)c1C [NA-6],–,–,–,–,–,–,"CC50 ([2]; Human Reporter Cell Line): > 25 µM; J774 IRF % activation at peak ([3]; Mouse Reporter Cell Line): 22.78%; EC50 [3, 7]: 13.1 µM; EC50 [4, 8]: 7.47 µM; CC50 (J774-Dual cytotoxicity; Mouse Reporter Cell Line): > 25 µM"
NC(=O)c1cc(NC(=O)c2ccccc2)ccc1N1CCOCC1 [NB-4],–,~72.1 µM,–,> 25 µM,–,> 25 µM,"activation at 25 µM ([4]; 24 h, Human Reporter Cell Line THP1, @25 uM, read-out: THP1 IRF % activation at peak): 5.61%"
COC(=O)COc1cccc(NC(=O)c2cccc(NC(=O)c3cccs3)c2)c1 [NC-4],–,–,–,–,–,–,"CC50 ([2]; Human Reporter Cell Line): > 25 µM; J774 IRF % activation at peak ([3]; Mouse Reporter Cell Line): 6.428%; EC50 [3, 7]: ~5.88 µM; EC50 [4, 8]: 9.88 µM; CC50 (J774-Dual cytotoxicity; Mouse Reporter Cell Line): > 25 µM"

# More lines, main results first:
"EC50 [3, 6]",EC50 ([4]; Human Reporter Cell Line THP1),SMILES,EC50 [1],CC50 ([2]; Human Reporter Cell Line THP1),"J774 IRF % activation at peak [3, 5]",CC50 (J774-Dual cytotoxicity; Mouse Reporter Cell Line J774),other results
4.5 µM,2.63 µM,COc1ccc(C(=O)Nc2cc(-c3nc4cc(Cl)ccc4o3)ccc2C)cc1[N+](=O)[O-] [ND-40],–,16.1 µM,119.6%,> 25 µM,–
~7.27 µM,11.9 µM,Cc1cc(C)c2c(N)c(C(=O)Nc3ccc4ccccc4c3)sc2n1 [ND-6],–,49.8 µM,18.79%,> 25 µM,–
~9.79 µM,–,Cc1ccc(-c2nc3cc(OCCCCl)ccc3o2)cc1[N+](=O)[O-] [ND-81],–,> 25 µM,23.19%,> 25 µM,–
10 µM,~3.05 µM,CCOc1ccc(C(=O)Nc2cc(-c3nc4ncccc4o3)ccc2C)cc1[N+](=O)[O-] [ND-48],–,7.26 µM,4.4%,> 25 µM,–
–,15.2 µM,Cc1ccc(-c2nc3ccccc3o2)cc1NC(=O)c1ccc(C)c([N+](=O)[O-])c1 [ND-30],–,> 25 µM,–,> 25 µM,–
–,~0.716 µM,Cc1cccc([C@H](C)c2cnc[nH]2)c1C [ND-76],–,> 25 µM,–,> 25 µM,–
–,~3.14 µM,Cc1ccc2nc(-c3ccc(C)c(NC(=O)c4ccc(C)c([N+](=O)[O-])c4)c3)oc2c1 [ND-31],–,22.3 µM,–,> 25 µM,–
~9.36 µM,–,Cc1ccc(-c2nc3cc(OCCCN4CCCC4)ccc3o2)cc1N [ND-82],–,> 25 µM,22.57%,> 25 µM,–
